Data reported in ChEMBL document CHEMBL5375968, “Peptide TK-HR from the Skin of Chinese Folk Medicine Frog Hoplobatrachus Rugulosus Accelerates Wound Healing via the Activation of the Neurokinin-1 Receptor” (J Med Chem, 2023).
The source made the active and inactive calls. The rule behind the calls is not given here.

Experiments:
[1] = Induction of TGF-beta1 level in mouse RAW264.7 cells at 20 uM incubated for 24 hrs by ELISA; format: functional
HaCaT = test: Induction of cell migration in human HaCaT cells assessed as actin stress fiber formation at peripheral side of cytoplasmic membrane at 20 uM measured after 24 hrs by immunofluorescence microscopy; format: functional, cell-based
HUVEC [2] = test: Induction of cell migration in Mitomycin C-treated HUVEC cells assessed as healing rate at 20 uM measured after 24 hrs by scratch healing assay (reference value: 30.2 %); format: functional, Homo sapiens
Aorta [3] = test: Ex vivo angiogenic activity in C57BL/6 mouse aortic ring assessed as increase in sprouting by measuring vessel outgrowth area at 5 uM measured for 7 days by microscopic analysis relative to control; format: functional; settings: time 7 day
RAW264.7 [4] = test: Induction of IL-6 expression in mouse RAW264.7 cells incubated for 24 hrs by ELISA; format: functional, cell-based; settings: dose 2.5-20 µM
[5] = Induction of wound healing in BALB/c mouse model of full-thickness wounds assessed as alpha-SMA level below wound surface at 50 to 200 ug/ml, TOP bid measured after 8 days by IHC analysis (reference value: 16.4 %); format: functional; settings: dose 50-200 µg/ml, time 8 day, at 50 to 200 µg/mL
RAW264.7 [6] = test: Induction of phagocytosis in mouse RAW264.7 cells cultured with Escherichia coli ATCC 25922 assessed as number of surviving engulfed bacteria at 2.5 uM incubated for 24 hrs followed by bacterial exposure for 1 hr and further treated with gentamycin for 2 hrs by plate counting method (reference value: 37); format: functional; settings: time 27 hrs
Neutrophil [7] = test: Induction of chemotaxis in BALB/c mouse neutrophils assessed as increase in ratio of cell polarization at 40 uM measured for 15 mins by Zigmond-chamber based microscopy (reference value: 14.6 %); format: functional; settings: 0.25 h
RAW264.7 [8] = test: Induction of IL-1beta expression in mouse RAW264.7 cells incubated for 24 hrs by ELISA; format: functional, cell-based; settings: dose 2.5-20 µM
[9] = Induction of TGF-beta1 level in mouse RAW264.7 cells at 10 uM incubated for 24 hrs by ELISA; format: functional
Aorta [10] = test: Ex vivo angiogenic activity in C57BL/6 mouse aortic ring assessed as increase in sprouting by measuring vessel outgrowth area at 20 uM measured for 7 days by microscopic analysis relative to control; format: functional; settings: time 7 day
HUVEC [11] = test: Induction of cell migration in HUVEC cells assessed as healing rate at 20 uM measured after 24 hrs by scratch healing assay (reference value: 30.2 %); format: functional, Homo sapiens
Staphylococcus aureus = test: Antimicrobial activity against Staphylococcus aureus ATCC 25923 assessed as microbial growth inhibition at 100 uM; format: functional, organism-based
Candida albicans = test: Antimicrobial activity against Candida albicans ATCC 10231 assessed as microbial growth inhibition at 100 uM; format: functional, organism-based
RAW264.7 [12] = test: Induction of phagocytosis in mouse RAW264.7 cells assessed as increase in neutral red dye uptake by measuring optical density at 540 nm at 2.5 uM incubated for 24 hrs followed by dye addition measured after 4 hrs by absorbance based assay (reference value: 0.073); format: functional; settings: time 28 hrs
Mus musculus [13] = species on record: Mus musculus; test: Induction of wound healing in BALB/c mouse model of full-thickness wounds assessed as decrease in recruitment of M1-type macrophages in wound skin at 50 ug/ml, TOP bid measured after 4 days by IHC analysis; format: functional; settings: dose 50.0 µg/ml, time 4.0 day
Escherichia coli = test: Antimicrobial activity against Escherichia coli ATCC 25922 assessed as microbial growth inhibition at 100 uM; format: functional, organism-based
HUVEC [14] = test: Angiogenic activity in HUVEC cells assessed as increase in tube formation at 10 uM measured for 4 hrs by microscopic analysis relative to control; format: functional, Homo sapiens
[15] = Induction of TGF-beta1 level in Aprepitant-treated mouse RAW264.7 cells at 10 uM incubated for 24 hrs by ELISA; format: functional
[16] = Induction of TGF-beta1 level in Aprepitant-treated mouse RAW264.7 cells at 20 uM incubated for 24 hrs by ELISA; format: functional
[17] = Induction of wound healing in BALB/c mouse model of full-thickness wounds at 100 ug/ml, TOP bid measured after 4 days (reference value: 48.6 %); format: functional; settings: dose 100 µg/ml, time 4 day
Mus musculus [18] = species on record: Mus musculus; test: Induction of wound healing in BALB/c mouse model of full-thickness wounds assessed as increase in TNF-alpha level in wound skin at 50 ug/ml, TOP bid measured after 2 days by ELISA; format: functional; settings: dose 50.0 µg/ml, time 2.0 day
HUVEC [19] = test: Induction of cell migration in Aprepitant-treated HUVEC cells assessed as healing rate at 20 uM measured after 24 hrs by scratch healing assay (reference value: 30.2 %); format: functional, Homo sapiens
Neutrophil [20] = test: Induction of cell migration in BALB/c mouse neutrophils incubated for 8 hrs by transwell migration assay; format: functional, cell-based; settings: dose 5-40 µM
RAW264.7 [21] = test: Upregulation of phosphorylated Smad3 level in Aprepitant-treated mouse RAW264.7 cells at 2.5 to 20 uM incubated for 4 hrs by Western blot analysis; format: functional, cell-based; settings: dose 2.5-20 µM
RAW264.7 [22] = test: Upregulation of phosphorylated p38 level in Aprepitant-treated mouse RAW264.7 cells at 2.5 to 20 uM incubated for 4 hrs by Western blot analysis; format: functional, cell-based; settings: dose 2.5-20 µM
RAW264.7 [23] = test: Induction of phagocytosis in mouse RAW264.7 cells assessed as increase in neutral red dye uptake by measuring optical density at 540 nm at 10 uM incubated for 24 hrs followed by dye addition measured after 4 hrs by absorbance based assay (reference value: 0.073); format: functional; settings: time 28 hrs
RAW264.7 [24] = test: Induction of phagocytosis in mouse RAW264.7 cells cultured with Escherichia coli ATCC 25922 assessed as number of engulfed bacteria at 10 uM incubated for 24 hrs followed by bacterial exposure measured after 1 hr by plate counting method (reference value: 225); format: functional; settings: time 25 hrs
Mus musculus [25] = species on record: Mus musculus; test: Induction of wound healing in BALB/c mouse model of full-thickness wounds assessed as dense arrangement of collagen fibers at 50 to 200 ug/ml, TOP bid measured after 8 days by Masson's Trichome staining based analysis; format: functional; settings: dose 50-200 µg/ml, time 8.0 day
Mus musculus [26] = species on record: Mus musculus; test: Induction of wound healing in BALB/c mouse model of full-thickness wounds assessed as decrease in TNF-alpha level in wound skin at 50 ug/ml, TOP bid measured after 4 days by ELISA; format: functional; settings: dose 50.0 µg/ml, time 4.0 day
RAW264.7 [27] = test: Induction of phagocytosis in mouse RAW264.7 cells cultured with Escherichia coli ATCC 25922 assessed as number of surviving engulfed bacteria at 5 uM incubated for 24 hrs followed by bacterial exposure for 1 hr and further treated with gentamycin for 2 hrs by plate counting method (reference value: 37); format: functional
RAW264.7 [28] = test: Induction of phagocytosis in mouse RAW264.7 cells cultured with Escherichia coli ATCC 25922 assessed as number of surviving engulfed bacteria at 10 uM incubated for 24 hrs followed by bacterial exposure for 1 hr and further treated with gentamycin for 2 hrs by plate counting method (reference value: 37); format: functional
Mus musculus [29] = species on record: Mus musculus; test: Induction of wound healing in BALB/c mouse model of full-thickness wounds assessed as increase in endothelial cells in wound skin at 50 ug/ml, TOP bid measured after 4 days by IHC analysis; format: functional, cell-based; settings: dose 50.0 µg/ml, time 4.0 day

H-KPNPDRFYGLM-NH2
Activity [1]: 119.3 pg/mL
Activity (HaCaT): Active
Activity (HUVEC [2]): 43.7%
Activity (Aorta [3]): 77.6%
Activity (RAW264.7 [4]): Dose-Dependent Effect
Activity [5]: 40.4%
Activity (RAW264.7 [6]): 30
Activity (Neutrophil [7]): 50.4%
Activity (RAW264.7 [8]): Dose-Dependent Effect
Activity [9]: 90.7 pg/mL
Activity (Aorta [10]): 193.8%
Activity (HUVEC [11]): 46.7%
Activity (Staphylococcus aureus): inactive
Activity (Candida albicans): inactive
OD (RAW264.7 [12]): 0.097
Activity (Mus musculus [13]): Active
Activity (Escherichia coli): inactive
Activity (HUVEC [14]): 139.5%
Activity [15]: 43.7 pg/mL
Activity [16]: 46.7 pg/mL
Activity [17]: 70.9%
Activity (Mus musculus [18]): Active
Activity (HUVEC [19]): 35.9%
Activity (Neutrophil [20]): Dose-Dependent Effect
Activity (RAW264.7 [21]): inactive
Activity (RAW264.7 [22]): inactive
OD (RAW264.7 [23]): 0.107
Activity (RAW264.7 [24]): 338
Activity (Mus musculus [25]): Active
Activity (Mus musculus [26]): Active
Activity (RAW264.7 [27]): 29
Activity (RAW264.7 [28]): 25
Activity (Mus musculus [29]): Active
